Assay results: patent US20260193294A1, “POLYPEPTIDE INHIBITOR, AND PREPARATION METHOD THEREFOR AND USE THEREOF” (SHANGHAI HANSOH BIOMEDICAL CO., LTD., priority 2022, published 2026)
Positions of bridges follow the written chain, without caps; N, C: chain ends. Non-standard residues stand in square brackets, D forms with d. Residues, ends and D or L forms follow the SMILES beside them. Trp(7-Me) = Cc1cccc2c(C[C@H](N)C(=O)O)c[nH]c12; 2Nal = N[C@@H](Cc1ccc2ccccc2c1)C(=O)O; Thp(SO2) = NC1(C(=O)O)CCS(=O)(=O)CC1; AEF = NCCOc1ccc(C[C@H](N)C(=O)O)cc1; Ac6c(4-thia) = NC1(C(=O)O)CCSCC1; 3Pal = N[C@@H](Cc1cccnc1)C(=O)O; Pen = CC(C)(S)[C@H](N)C(=O)O; Sar = CNCC(=O)O

Assays:
IL23R = target: T1, IL23R (Homo sapiens, UniProt Q5VWK5); assay: Competing with IL23 for binding to IL23R (HTRF, IL23/IL23R binding assay kit); conditions: 2 hours incubation at room temperature
T1 construct: Tag2 (identity not disclosed); purchased PerkinElmer 64BDPIL23PEH
T1 sequence (Q5VWK5 24-355 limits assumed): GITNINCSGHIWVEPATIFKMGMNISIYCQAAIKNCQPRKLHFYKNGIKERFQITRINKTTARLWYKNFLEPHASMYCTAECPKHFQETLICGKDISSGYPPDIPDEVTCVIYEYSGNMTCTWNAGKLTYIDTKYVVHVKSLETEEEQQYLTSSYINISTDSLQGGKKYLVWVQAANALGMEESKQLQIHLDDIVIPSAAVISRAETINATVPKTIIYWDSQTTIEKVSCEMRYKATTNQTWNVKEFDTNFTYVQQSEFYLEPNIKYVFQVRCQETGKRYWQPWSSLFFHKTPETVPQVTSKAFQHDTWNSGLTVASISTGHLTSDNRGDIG
Method: (§1) The compounds of the present disclosure were screened in IL23/IL23R BINDING ASSAY KITS (PerkinElmer Cat #64BDPIL23PEH). The screening of the compounds of the present disclosure was carried out by using a multi-well plate (suitable for HTRF determination). Generally, 2 μl of several compounds of the present disclosure and STANDARD SOLUTIONS in KIT were first respectively added to the wells of the multi-well plate. 4 μl of Tag1-IL23, 4 μl of Tag2-IL23R, and 10 μL of pre-mixed Anti-Tag1 Eu Cryptate Antibody and Anti-Tag2 d2 reagent were necessarily added to all the wells. The multi-well plate was protected from light by an opaque cover membrane, and the opaque cover membrane was then removed
as §1, with “removed after 2 hours of incubation at room temperature. The signal value was read by an HTRF-compatible detection instrument to detect IC50 value.” for “removed”
(§2) The inhibition rate was calculated as follows: […]
By using log (inhibitor) vs. response—Variable slope (four parameters) in Graphpad, the data of HTRF experiment results were subjected to non-linear regression fitting to fit a curve and obtain the IC50 value.

[1] = system: activation of STAT3 phosphorylation by hIL23 in DB cells; assay: Blocking the activation of STAT3 phosphorylation by hIL23 in DB cells (p-STAT3 ELISA); assay type: cell-based, Human; conditions: DB cells stimulated by rhIL-23 0.5 nM, half an hour; read-out: pStat3 IC50
Method: To determine the inhibitory activity of the compounds of the present disclosure on the activation of STAT3 phosphorylation by hIL23 in DB cells
The compounds produced above were added to DB (ATCC Cat #CRL-2289) cells to inhibit the signal transduction of rhIL-23 cytokine. The screening of compounds was carried out by a multi-well plate (suitable for ELISA assay). Generally, in the presence of some of the above compounds of the present disclosure, 6.25×10^6 cells/ml of DB cells were stimulated by rhIL-23 (0.5 nM, R&D SYSTEMS) in RPMI medium (Invitrogen) containing 10% of FBS, and after half an hour, lysis was carried out on ice using 50 μL of 2×lysis buffer (CST). The content of p-STAT3 in the lysate was determined by PathScan Phospho-Stat3 (Tyr705) Sandwich ELISA Kit (CST Cat #7300C), so as to calculate the activity of the compounds of the present disclosure in blocking rhIL23 signal transduction in DB cells.
as §2
By using log (inhibitor) vs. response—Variable slope (four parameters) in Graphpad, the data of ELISA experiment results were subjected to non-linear regression fitting to fit a curve and obtain the IC50 value.

| IC50 (IL23R) | IC50 [1] | Compound |
| --- | --- | --- |
| 1.18 nM |  | CC(=O)NCCCC[C@@H]1NC(=O)[C@H](Cc2c[nH]c3c(C)cccc23)NC(=O)[C@H]([C@@H](C)O)NC(=O)[C@H](CC(N)=O)NC(=O)[C@@H](NC(C)=O)C(C)(C)SSC(C)(C)[C@@H](C(=O)N[C@@H](Cc2ccc(OCCN)cc2)C(=O)N[C@@H](Cc2ccc3ccccc3c2)C(=O)NC2(C(=O)N[C@@H](CCC(=O)O)C(=O)N[C@@H](CC(N)=O)C(=O)N[C@@H](Cc3cccnc3)C(=O)N(C)CCNC(=O)CCCCC[N+](C)(C)C)CCS(=O)(=O)CC2)NC1=O [Example 4-19] |
| 0.23 nM | 0.01 nM | CCCCCCC(=O)NCCCCCCCC(=O)NCC[N+](C)(C)CCOCCOCCC(=O)NCCN(C)C(=O)[C@H](Cc1cccnc1)NC(=O)[C@H](CC(N)=O)NC(=O)[C@H](CCC(=O)O)NC(=O)C1(NC(=O)[C@H](Cc2ccc3ccccc3c2)NC(=O)[C@H](Cc2ccc(OCCN)cc2)NC(=O)[C@H]2NC(=O)[C@H](CCCCNC(C)=O)NC(=O)[C@H](Cc3c[nH]c4c(C)cccc34)NC(=O)[C@H]([C@@H](C)O)NC(=O)[C@H](CC(N)=O)NC(=O)[C@@H](NC(C)=O)C(C)(C)SSC2(C)C)CCOCC1 [Example 2] |
| 1.09 nM | 0.0014 nM | CC(=O)NCCCC[C@@H]1NC(=O)[C@H](Cc2c[nH]c3c(C)cccc23)NC(=O)[C@H]([C@@H](C)O)NC(=O)[C@H](CC(N)=O)NC(=O)[C@@H](NC(C)=O)C(C)(C)SSC(C)(C)[C@@H](C(=O)N[C@@H](Cc2ccc(OCCN)cc2)C(=O)N[C@@H](Cc2ccc3ccccc3c2)C(=O)NC2(C(=O)N[C@@H](CCC(=O)O)C(=O)N[C@@H](CC(N)=O)C(=O)N[C@@H](Cc3cccnc3)C(=O)N(C)CC(N)=O)CCSCC2)NC1=O [Example 3-14] (Ac-[Pen]NT[Trp(7-Me)]K(Ac)[Pen][AEF][2Nal][Ac6c(4-thia)]EN[3Pal][Sar]-NH2; disulfide 1-6) |
| 1.14 nM |  | CC(=O)NCCCC[C@@H]1NC(=O)[C@H](Cc2c[nH]c3c(C)cccc23)NC(=O)[C@H]([C@@H](C)O)NC(=O)[C@H](CC(N)=O)NC(=O)[C@@H](NC(C)=O)C(C)(C)SSC(C)(C)[C@@H](C(=O)N[C@@H](Cc2ccc(OCCN)cc2)C(=O)N[C@@H](Cc2ccc3ccccc3c2)C(=O)NC2(C(=O)N[C@@H](CCC(=O)O)C(=O)N[C@@H](CC(N)=O)C(=O)N[C@@H](Cc3cccnc3)C(=O)N(C)CCNC(=O)CCCCC[N+](C)(C)C)CCOCC2)NC1=O [Example 12] |
| 1.14 nM |  | CC(=O)NCCCC[C@@H]1NC(=O)[C@H](Cc2c[nH]c3c(C)cccc23)NC(=O)[C@H]([C@@H](C)O)NC(=O)[C@H](CC(N)=O)NC(=O)[C@@H](NC(C)=O)C(C)(C)SSC(C)(C)[C@@H](C(=O)N[C@@H](Cc2ccc(OCCN)cc2)C(=O)N[C@@H](Cc2ccc3ccccc3c2)C(=O)NC2(C(=O)N[C@@H](CCC(=O)O)C(=O)N[C@@H](CC(N)=O)C(=O)N[C@@H](Cc3ccncc3)C(=O)N(C)CC(N)=O)CCC(F)(F)CC2)NC1=O [Example 1-14] |
| 1.11 nM | 0.0016 nM | CC(=O)NCCCC[C@@H]1NC(=O)[C@H](Cc2c[nH]c3c(C)cccc23)NC(=O)[C@H]([C@@H](C)O)NC(=O)[C@H](CC(N)=O)NC(=O)[C@@H](NC(C)=O)C(C)(C)SSC(C)(C)[C@@H](C(=O)N[C@@H](Cc2ccc(OCCN)cc2)C(=O)N[C@@H](Cc2ccc3ccccc3c2)C(=O)NC2(C(=O)N[C@@H](CCC(=O)O)C(=O)N[C@@H](CC(N)=O)C(=O)N[C@@H](Cc3cccnc3)C(=O)N(C)CC(N)=O)CCS(=O)(=O)CC2)NC1=O [Example 4-14] (Ac-[Pen]NT[Trp(7-Me)]K(Ac)[Pen][AEF][2Nal][Thp(SO2)]EN[3Pal][Sar]-NH2; disulfide 1-6) |
| 1.23 nM |  | CC(=O)NCCCC[C@@H]1NC(=O)[C@H](Cc2c[nH]c3c(C)cccc23)NC(=O)[C@H]([C@@H](C)O)NC(=O)[C@H](CC(N)=O)NC(=O)[C@@H](NC(C)=O)C(C)(C)SSC(C)(C)[C@@H](C(=O)N[C@@H](Cc2ccc(OCCN)cc2)C(=O)N[C@@H](Cc2ccc3ccccc3c2)C(=O)NC2(C(=O)N[C@@H](CCC(=O)O)C(=O)N[C@@H](CC(N)=O)C(=O)N[C@@H](Cc3cccnc3)C(=O)N(C)CCNC(=O)CCOCCOCC[N+](C)(C)C)CCOCC2)NC1=O [Example 3] |
| 1.35 nM |  | CC(=O)NCCCC[C@@H]1NC(=O)[C@H](Cc2c[nH]c3c(C)cccc23)NC(=O)[C@H]([C@@H](C)O)NC(=O)[C@H](CC(N)=O)NC(=O)[C@@H](NC(C)=O)C(C)(C)SSC(C)(C)[C@@H](C(=O)N[C@@H](Cc2ccc(OCCN)cc2)C(=O)N[C@@H](Cc2ccc3ccccc3c2)C(=O)NC2(C(=O)N[C@@H](CCC(=O)O)C(=O)N[C@@H](CC(N)=O)C(=O)N[C@@H](Cc3cccnc3)C(=O)N(C)CCNC(=O)CCCCC[N+](C)(C)C)CCC(F)(F)CC2)NC1=O [Example 1-19] |
| 1.25 nM |  | CC(=O)NCCCC[C@@H]1NC(=O)[C@H](Cc2c[nH]c3c(C)cccc23)NC(=O)[C@H]([C@@H](C)O)NC(=O)[C@H](CC(N)=O)NC(=O)[C@@H](NC(C)=O)C(C)(C)SSC(C)(C)[C@@H](C(=O)N[C@@H](Cc2ccc(OCCN)cc2)C(=O)N[C@@H](Cc2ccc3ccccc3c2)C(=O)NC2(C(=O)N[C@@H](CCC(=O)O)C(=O)N[C@@H](CC(N)=O)C(=O)N[C@@H](Cc3cccnc3)C(=O)N(C)CCNC(=O)COCCOCCNC(=O)COCCOCCNC(=O)CC[C@H](NC(=O)CCCCCCCCCCCCCCCCC(=O)O)C(=O)O)CCOCC2)NC1=O [Example 6] |
| 1.13 nM |  | CC(=O)NCCCC[C@@H]1NC(=O)[C@H](Cc2c[nH]c3c(C)cccc23)NC(=O)[C@H]([C@@H](C)O)NC(=O)[C@H](CC(N)=O)NC(=O)[C@@H](NC(C)=O)C(C)(C)SSC(C)(C)[C@@H](C(=O)N[C@@H](Cc2ccc(OCCN)cc2)C(=O)N[C@@H](Cc2ccc3ccccc3c2)C(=O)NC2(C(=O)N[C@@H](CCC(=O)O)C(=O)N[C@@H](CC(N)=O)C(=O)N[C@@H](Cc3cccnc3)C(=O)N(C)CCNC(=O)CCCCC[N+](C)(C)C)CCSCC2)NC1=O [Example 3-19] |
